In the experiment the target is T1, ABL1 (Homo sapiens, UniProt P00519).
T1 construct: purchased Thermo Fisher Scientific (Life Technologies) SelectScreen
In words: SelectScreen Z'LYTE. In kind it is biochemical. The method, boiled down:
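NU5455 was profiled across the SelectScreen Broad panel of kinase activity and binding assays. Z'LYTE reactions such as CSF1R ran at apparent Km ATP, while the Adapta CAMK1 assay used ATP listed as 10. Values are given as percent.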

One may read the inhibition as the relative decrease from the control value, in per cent. The low end stands for a response near the control, the high end for a response far below the control.

T1 sequence (P00519 whole entry): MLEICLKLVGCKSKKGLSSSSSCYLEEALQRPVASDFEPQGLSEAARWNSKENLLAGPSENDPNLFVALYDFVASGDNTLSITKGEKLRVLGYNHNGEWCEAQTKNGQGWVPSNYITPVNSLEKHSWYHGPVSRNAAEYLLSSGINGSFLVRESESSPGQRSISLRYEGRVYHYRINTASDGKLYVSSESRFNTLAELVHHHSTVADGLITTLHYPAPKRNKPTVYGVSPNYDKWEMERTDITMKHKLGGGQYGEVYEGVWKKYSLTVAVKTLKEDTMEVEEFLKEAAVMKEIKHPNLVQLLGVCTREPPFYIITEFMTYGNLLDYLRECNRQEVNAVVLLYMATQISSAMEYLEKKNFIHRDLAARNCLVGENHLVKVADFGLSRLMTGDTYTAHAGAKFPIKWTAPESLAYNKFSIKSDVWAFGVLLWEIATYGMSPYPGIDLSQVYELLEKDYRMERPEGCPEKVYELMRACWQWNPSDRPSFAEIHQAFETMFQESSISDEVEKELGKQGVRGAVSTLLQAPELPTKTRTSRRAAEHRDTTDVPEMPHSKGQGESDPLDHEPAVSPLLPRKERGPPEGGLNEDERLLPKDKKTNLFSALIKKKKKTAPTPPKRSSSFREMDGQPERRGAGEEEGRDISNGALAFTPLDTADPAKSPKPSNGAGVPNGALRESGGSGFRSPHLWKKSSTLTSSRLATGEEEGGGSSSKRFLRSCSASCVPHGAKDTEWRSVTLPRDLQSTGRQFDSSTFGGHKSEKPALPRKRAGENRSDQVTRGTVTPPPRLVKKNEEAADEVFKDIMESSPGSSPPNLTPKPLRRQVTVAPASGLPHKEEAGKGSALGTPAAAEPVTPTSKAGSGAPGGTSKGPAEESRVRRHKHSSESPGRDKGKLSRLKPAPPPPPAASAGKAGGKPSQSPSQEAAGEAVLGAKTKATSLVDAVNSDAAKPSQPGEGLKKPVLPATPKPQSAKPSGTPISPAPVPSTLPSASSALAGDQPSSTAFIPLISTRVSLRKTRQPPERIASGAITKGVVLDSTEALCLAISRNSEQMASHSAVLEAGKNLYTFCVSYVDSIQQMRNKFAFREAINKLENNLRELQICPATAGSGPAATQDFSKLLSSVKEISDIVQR

The compound `CN(C(=O)CN1CCOCC1)c1ccc2sc3c(-c4cccc5c(=O)cc(N6CC7CCC(C6)O7)oc45)cccc3c2c1` [NU5455] gave an inhibition at 1 µM of 10.4%.

The values are drawn from paper PMC6934184, “Selective DNA-PKcs inhibition extends the therapeutic index of localized radiotherapy and chemotherapy” (The Journal of Clinical Investigation, 2019).
